The assay deals with human TYK2 (JH2domain-pseudokinase) (Homo sapiens (Human), UniProt P29597). In words: TYK2 JH2 Domain Binding Assay (KINOMEscan). How it is done:
Binding constants for compounds of the present invention against the JH2 domain were determined by the following protocol for a KINOMEscan® assay (DiscoveRx). A fusion protein of a partial length construct of human TYK2 (JH2domain-pseudokinase) (amino acids G556 to D888 based on reference sequence NP_003322.3) and the DNA binding domain of NFkB was expressed in transiently transfected HEK293 cells. From these HEK 293 cells, extracts were prepared in M-PER extraction buffer (Pierce) in the presence of Protease Inhibitor Cocktail Complete (Roche) and Phosphatase Inhibitor Cocktail Set II (Merck) per manufacturers' instructions. The TYK2 (JH2domain-pseudokinase) fusion protein was labeled with a chimeric double-stranded DNA tag containing the NFkB binding site (5′-[…]-3′) fused to an amplicon for qPCR readout, which was added directly to the expression extract (the final concentration of DNA-tag in the binding reaction is 0.1 nM).
The liganded beads were blocked with excess biotin and washed with blocking buffer (SeaBlock (Pierce), 1% BSA, 0.05% Tween 20, 1 mM DTT) to remove unbound ligand and to reduce nonspecific binding.
Extracts were used directly in binding assays without any enzyme purification steps at a ≥10,000-fold overall stock dilution (final DNA-tagged enzyme concentration <0.1 nM). Extracts were loaded with DNA-tag and diluted into the binding reaction in a two step process. First extracts were diluted 1:100 in 1× binding buffer (PBS/0.05% Tween 20/10 mM DTT/0.1% BSA/2 μg/ml sonicated salmon sperm DNA) containing 10 nM DNA-tag. This dilution was allowed to equilibrate at room temperature for 15 minutes and then subsequently diluted 1:100 in 1× binding buffer. […] Kds were determined using an 11-point 3-fold compound dilution series with three DMSO control points. […] The compounds were then diluted directly into the assays such that the final concentration of DMSO was 0.9%. All reactions performed in polypropylene 384-well plates. Each was a final volume of 0.02 mL. Assays were incubated with shaking for 1 hour at room temperature. Then the beads were pelleted and washed with wash buffer (1×PBS, 0.05% Tween 20) to remove displaced kinase and test compound. […] The qPCR protocol consisted of a 10 minute hot start at 95° C., followed by 35 cycles of 95° C. for 15 seconds, 60° C. for 1 minute.
Kds were determined using an 11-point 3-fold compound dilution series with three DMSO control points. […] The compounds were then diluted directly into the assays such that the final concentration of DMSO was 0.9%. The Kds were determined using a compound top concentration of 30,000 nM. Kd measurements were performed in duplicate.
Binding constants (Kds) were calculated with a standard dose-response curve using the Hill equation: […]
The Hill Slope was set to −1.

pKd: −log10 of the molar value.

By pKd is commonly meant the negative decadic logarithm of the Kd, by convention in mol/L.

Sequence of human TYK2 (JH2domain-pseudokinase) (P29597 556-888): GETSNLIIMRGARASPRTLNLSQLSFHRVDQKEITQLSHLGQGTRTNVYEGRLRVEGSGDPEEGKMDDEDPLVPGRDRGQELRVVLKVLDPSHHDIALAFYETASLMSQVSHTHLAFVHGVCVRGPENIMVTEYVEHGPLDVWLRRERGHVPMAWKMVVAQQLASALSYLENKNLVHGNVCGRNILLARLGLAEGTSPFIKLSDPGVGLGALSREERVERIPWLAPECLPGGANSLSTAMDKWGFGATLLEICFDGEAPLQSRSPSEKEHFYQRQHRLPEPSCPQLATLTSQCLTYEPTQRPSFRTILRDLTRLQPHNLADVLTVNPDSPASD

As to `CNc1cc(-c2cn([C@H]3CCCOC3)c3ncccc23)nc2c(C(=O)N[C@H]3COC[C@H]3O)cnn12` (mixture of isomers) [I-1251, N-(4-hydroxytetrahydrofuran-3-yl)-7-(methylamino)-5-(1-((S)-tetrahydro-2H-pyran-3-yl)-1H-pyrrolo[2,3-b]pyridin-3-yl)pyrazolo[1,5-a]pyrimidine-3-carboxamide], the pKd is 8.00 to 9.00. The molecule `CNc1cc(-c2cn([C@@H]3CCCOC3)c3ncccc23)nc2c(C(=O)NC3CCC3O)cnn12` (mixture of isomers) [I-1257, N-(2-hydroxycyclobutyl)-7-(methylamino)-5-(1-((R)-tetrahydro-2H-pyran-3-yl)-1H-pyrrolo[2,3-b]pyridin-3-yl)pyrazolo[1,5-a]pyrimidine-3-carboxamide] had a pKd greater than 9.70. Molecule `CNc1cc(-c2cn([C@H]3CCC[C@@H]3OC)c3ncccc23)nc2c(C(=O)NC3CCC3O)cnn12` (mixture of isomers) [I-1340, N-(2-hydroxycyclobutyl)-5-(1-((1S,2S)-2-methoxycyclopentyl)-1H-pyrrolo[2,3-b]pyridin-3-yl)-7-(methylamino)pyrazolo[1,5-a]pyrimidine-3-carboxamide] had a negative logarithm of the Kd (pKd) of 8.00 to 9.00.

Consider `CNc1cc(-c2cn([C@@H]3CCC[C@H]3OC)c3ncccc23)nc2c(C(=O)NC3CCC3O)cnn12` (mixture of isomers) [I-1341, N-(2-hydroxycyclobutyl)-5-(1-((1R,2R)-2-methoxycyclopentyl)-1H-pyrrolo[2,3-b]pyridin-3-yl)-7-(methylamino)pyrazolo[1,5-a]pyrimidine-3-carboxamide], for which the pKd was less than 8.00. Molecule `CNc1cc(Nc2cccn([C@H]3CCCOC3)c2=O)nc2c(C(=O)NC3CC3OC)cnn12` (mixture of isomers) [I-1415, N-(2-methoxycyclopropyl)-7-(methylamino)-5-((2-oxo-1-((S)-tetrahydro-2H-pyran-3-yl)-1,2-dihydropyridin-3-yl)amino)pyrazolo[1,5-a]pyrimidine-3-carboxamide] gave a pKd of 9.00 to 9.70. In turn, `CNc1cc(Nc2cccn(C3CCOCC3)c2=O)nc2c(C(=O)N[C@H]3CCC[C@]3(C)O)cnn12` (stereo in doubt) [I-1254, N-(2-hydroxy-2-methylcyclopentyl)-7-(methylamino)-5-((2-oxo-1-(tetrahydro-2H-pyran-4-yl)-1,2-dihydropyridin-3-yl)amino)pyrazolo[1,5-a]pyrimidine-3-carboxamide] had a pKd of 9.00 to 9.70. Regarding `CNc1cc(Nc2cccn(C3CCOCC3)c2=O)nc2c(C(=O)N[C@@H]3CCC[C@@](C)(OC)C3)cnn12` (stereo in doubt) [I-1274, N-(3-methoxy-3-methylcyclohexyl)-7-(methylamino)-5-((2-oxo-1-(tetrahydro-2H-pyran-4-yl)-1,2-dihydropyridin-3-yl)amino)pyrazolo[1,5-a]pyrimidine-3-carboxamide], the pKd was greater than 9.70. The value for `CNc1cc(Nc2cccn(C3CCOCC3)c2=O)nc2c(C(=O)N[C@@H]3CC[C@@H](OC)C3)cnn12` (stereo in doubt) [I-1334, N-(3-methoxycyclopentyl)-7-(methylamino)-5-((2-oxo-1-(tetrahydro-2H-pyran-4-yl)-1,2-dihydropyridin-3-yl)amino)pyrazolo[1,5-a]pyrimidine-3-carboxamide] was greater than 9.70; that for `CNc1cc(-c2cn(C3CCOCC3)c3ncccc23)nc2c(C(=O)N[C@@H]3CCC[C@@H](O)C3)cnn12` (stereo in doubt) [I-1359, N-(3-hydroxycyclohexyl)-7-(methylamino)-5-(1-(tetrahydro-2H-pyran-4-yl)-1H-pyrrolo[2,3-b]pyridin-3-yl)pyrazolo[1,5-a]pyrimidine-3-carboxamide] was greater than 9.70; that for `CNc1cc(Nc2cc(C)nc(C)c2)nc2c(C(N)=O)cnn12` [I-13] was 8.00 to 9.00. Then `CNc1cc(Nc2cc(Cl)cnc2O[C@@H]2CCOC2)nc2c(C(N)=O)cnn12` [I-84], with 9.00 to 9.70; and `NC(=O)c1cnn2c(N)cc(Nc3cc(Cl)cnc3O[C@@H]3CCOC3)nc12` [I-85], with 8.00 to 9.00.

With `CNc1cc(Nc2cccnc2OC(C)C)nc2c(C(=O)NC3COC3)cnn12` [I-86], the pKd was less than 8.00.

Regarding `CNc1cc(Nc2cc(Cl)cnc2OC(C)C)nc2c(C(=O)NC3COC3)cnn12` [I-87], the pKd was less than 8.00. For the molecule `CNc1cc(Nc2cccc(N3CCCC3=O)n2)nc2c(C(=O)NC3COC3)cnn12` [I-88], the pKd was less than 8.00. With `CNc1cc(Nc2cccnc2OC)nc2c(C(=O)N[C@@H]3COC[C@@H]3O)cnn12` [I-519], the pKd is greater than 9.70.

Regarding `CNc1cc(Nc2cccnc2OC2CC2)nc2c(C(=O)N[C@H]3COC[C@H]3O)cnn12` [I-520], the pKd is 9.00 to 9.70. Regarding `CNc1cc(Nc2cc(F)cn(C3CCCOC3)c2=O)nc2c(C(=O)N[C@@H]3C[C@@H]3F)cnn12` (stereo partly drawn) [I-521], the negative-log Kd (pKd) was greater than 9.70. In turn, `CNc1cc(Nc2cc(C(F)(F)F)cn(-c3cnn(C)c3)c2=O)nc2c(C(=O)NC3CC3)cnn12` [I-523] showed a pKd of 9.00 to 9.70. The value for `CNc1cc(Nc2cccn([C@@H]3CCC[C@@H]3OC)c2=O)nc2c(C(=O)NC3CC3)cnn12` [I-524] was 8.00 to 9.00; that for `CNc1cc(Nc2cccn([C@H]3CCC[C@H]3OC)c2=O)nc2c(C(=O)NC3CC3)cnn12` [I-525] was less than 8.00; that for `CNc1cc(-c2cn([C@@H]3CCCOC3)c3ncccc23)nc2c(C(=O)N[C@@H]3COC[C@@H]3O)cnn12` [I-1184] was greater than 9.70.

`CNc1cc(-c2cn([C@@H]3CCCOC3)c3ncccc23)nc2c(C(=O)N[C@H]3COC[C@H]3O)cnn12` [I-1185] gave a pKd of 8.00 to 9.00.

For `CNc1cc(Nc2cccn([C@H]3C[C@@H]3OC)c2=O)nc2c(C(=O)N[C@@H]3CC[C@H]3OC)cnn12` [I-1186], the pKd was greater than 9.70. With `CNc1cc(Nc2cccn([C@H]3C[C@@H]3OC)c2=O)nc2c(C(=O)N[C@H]3CC[C@@H]3OC)cnn12` [I-1187], the pKd was greater than 9.70. Then `CNc1cc(Nc2cccn(-c3ccc(C)nc3)c2=O)nc2c(C(=O)N[C@H]3CCC[C@H](OC)C3)cnn12` [I-1188], with 8.00 to 9.00; and `CNc1cc(Nc2cccn(-c3ccc(C)nc3)c2=O)nc2c(C(=O)N[C@@H]3CCC[C@@H](OC)C3)cnn12` [I-1189], with greater than 9.70; and `CNc1cc(Nc2cccn([C@@H]3CCC[C@H](O)C3)c2=O)nc2c(C(=O)N[C@@H]3CC[C@H]3OC)cnn12` [I-1190], with greater than 9.70.

Molecule `CNc1cc(Nc2cccn([C@@H]3CCC[C@H](O)C3)c2=O)nc2c(C(=O)N[C@H]3CC[C@@H]3OC)cnn12` [I-1191] gave a pKd greater than 9.70. `CNc1cc(Nc2cccn([C@H]3CCC[C@@H](O)C3)c2=O)nc2c(C(=O)N[C@@H]3CC[C@H]3OC)cnn12` [I-1192] showed a pKd greater than 9.70.

On to `CNc1cc(Nc2cccn([C@H]3CCC[C@@H](O)C3)c2=O)nc2c(C(=O)N[C@H]3CC[C@@H]3OC)cnn12` [I-1193], for which the pKd is greater than 9.70. Then `CNc1cc(Nc2cccn(C3CCOCC3)c2=O)nc2c(C(=O)N[C@H]3CC[C@H](OC)C3)cnn12` [I-1194], with greater than 9.70; and `CNc1cc(Nc2cccn(C3CCOCC3)c2=O)nc2c(C(=O)N[C@@H]3CC[C@@H](OC)C3)cnn12` [I-1195], with 8.00 to 9.00; and `CNc1cc(Nc2cccn(C3CCOCC3)c2=O)nc2c(C(=O)N[C@@H]3CCCC[C@@]3(C)O)cnn12` [I-1196], with 9.00 to 9.70. In turn, `CNc1cc(Nc2cccn(C3CCOCC3)c2=O)nc2c(C(=O)N[C@H]3CCCC[C@]3(C)O)cnn12` [I-1197] had a pKd greater than 9.70. Turning to `CNc1cc(Nc2cccn(C3CC(F)(F)C3)c2=O)nc2c(C(=O)N[C@@H]3CC[C@H]3O)cnn12` [I-1198], the pKd was greater than 9.70. The molecule `CNc1cc(Nc2cccn(C3CC(F)(F)C3)c2=O)nc2c(C(=O)N[C@H]3CC[C@@H]3O)cnn12` [I-1199] showed a pKd of 9.00 to 9.70. `CNc1cc(Nc2cccn(C3CCOCC3)c2=O)nc2c(C(=O)N[C@H]3CCC[C@](C)(OC)C3)cnn12` [I-1200]: the pKd was 9.00 to 9.70. In turn, `CNc1cc(Nc2cccn(C3CCOCC3)c2=O)nc2c(C(=O)N[C@@H]3CCC[C@@](C)(OC)C3)cnn12` [I-1201] had a pKd of 9.00 to 9.70. As to `CNc1cc(Nc2cccn([C@H]3C[C@@H]3F)c2=O)nc2c(C(=O)N[C@@H]3CC[C@H](O)C3)cnn12` [I-1202], the pKd was 8.00 to 9.00. Turning to `CNc1cc(Nc2cccn([C@@H]3C[C@H]3F)c2=O)nc2c(C(=O)N[C@@H]3CC[C@H](O)C3)cnn12` [I-1203], the pKd was greater than 9.70. The molecule `CNc1cc(Nc2cccn([C@H]3C[C@@H]3F)c2=O)nc2c(C(=O)N[C@H]3CC[C@@H]3OC)cnn12` [I-1204] had a pKd greater than 9.70.
